{"source": "patent US20230372333A1", "about": "“COMBINATION THERAPY FOR TREATING CANCER” (ASTRAZENECA AB, priority 2020, published 2023)", "key": {"SUM149PT xenograft model": {"system": "SUM149PT xenograft model", "experiment": "Anti-tumour efficacy of AZD5305, carboplatin and combination in SUM149PT xenograft model (Example 3)", "format": "in vivo, mice", "conditions": "AZD5305 0.01 mg/kg PO QD, 28 days", "procedure": "SUM149PT cells (2×10^6) were implanted with 50% Matrigel into mammary fat pad (MFP) of female SCID mice (weight greater than 18 g). Tumours were measured (length×width) two times weekly by bilateral Vernier calliper measurements and tumour volume was calculated using elliptical formula (π/6×width×width×length). Animal bodyweight and tumour condition were monitored throughout the studies. Mice were randomised into treatment groups when mean tumour volume reached approximately 0.3 cm^3. Animals were treated from the day after the randomisation. Control animals were treated orally (PO) once daily (QD) with vehicle (deionised water acidified with HCl to pH 3.5-4) and intraperitoneally (IP) once weekly (QW) with PBS. AZD5305 was dosed PO QD at 0.1, 0.03 or 0.01 mg/kg. Carboplatin was dosed IP once weekly (QW) at 37.5 mg/kg. In the combination group, mice were dosed with carboplatin first, followed by AZD5305 administration within 10 minutes.\n(§1) Tumour growth inhibition from start of treatment was assessed by comparison of the mean change in tumour volume of the control and treated groups and represented as percent tumour growth inhibition (TGI, when TV≥starting TV) or regression (reg, when TV<starting TV). Mean percent body weight change from start of treatment was also calculated for all the groups. Statistical significance was evaluated using a one-tailed t test. […]"}, "[1]": {"system": "HBCx-9 patient-derived explant model", "experiment": "Anti-tumour efficacy of AZD5305, carboplatin and combination in HBCx-9 PDX model (Example 2)", "format": "in vivo", "conditions": "carboplatin 50 mg/kg IP QW, 28 days, Nude female mice", "text": "HBCx-9 is a patient-derived tumour explant (PDX) model established in XenTech without prior in vitro culture. Tumour fragments were transplanted subcutaneously (SC) onto donor mice. When tumour volume reached 700 to 1764 mm^3, donor mice were sacrificed, and tumours were aseptically excised and dissected. After removing necrotic areas, tumours were cut into fragments measuring approximately 20 mm^3 and transferred in culture medium before grafting SC into the recipient (experimental) Nude female mice. Tumours were measured (length×width) two times weekly by bilateral Vernier calliper measurements and tumour volume was calculated using elliptical formula (π/6×width×width×length). Animal bodyweight and tumour condition were monitored throughout the study. Mice were randomised into treatment groups when mean tumour volume reached approximately 100 mm^3. Animals were treated from the day after the randomisation. […]\nas §1, with “TV≤starting” for “TV≥starting”"}, "HBCx-9": {"system": "HBCx-9", "conditions": "HBCx-9 TNBC PDX model, reference [2]; cited from earlier work"}}, "note": "“Also recorded” adds a separate entry of the source.", "data": [{"smiles": "CCc1cc2ncc(CN3CCN(c4ccc(C(=O)NC)nc4)CC3)cc2[nH]c1=O", "note": "[AZD5305, 5-[4-[(7-ethyl-6-oxo-5H-1,5-naphthyridin-3-yl)methyl]piperazin-1-yl]-N-methyl-pyridine-2-carboxamide]", "values": [{"measurement": "Tumour Growth Inhibition/Regression (end of treatment)", "setting": "SUM149PT xenograft model", "value": "did not inhibit tumour growth; also recorded: No TGI or regression"}]}, {"smiles": "N.N.O=C([O-])C1(C(=O)[O-])CCC1.[Pt+2]", "note": "[Carboplatin, carboplatin]", "values": [{"measurement": "Tumour Growth Inhibition/Regression (end of treatment): TGI", "setting": "[1]", "value": "88% TGI *** (p ≤ 0.001)"}, {"measurement": "Tumour Growth Inhibition/Regression (end of treatment): TGI", "setting": "[1]; listed as carboplatin", "value": 88, "unit": "%"}]}, {"smiles": "O=C(c1cc(Cc2n[nH]c(=O)c3ccccc23)ccc1F)N1CCN(C(=O)C2CC2)CC1", "note": "[olaparib]", "values": [{"measurement": "sensitivity of HBCx-9 to monotherapy", "setting": "HBCx-9", "value": "moderate sensitivity"}]}]}
